The structures appear in SMILES notation.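 Following 48 hours of exposure in 96-well plates, responses at five concentrations were used to interpolate endpoints linearly. The concentration for 50% growth inhibition is given as GI50.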 Activity calls are given as the source filed them. No stated cut-off is given here; in the data, active = GI50 up to about 1.1 µM and inactive = higher.

This is an account of results in ChEMBL document CHEMBL1201862, “PubChem BioAssay data set” (2004).

Some test systems named below: COLO 205; IGROV-1; ACHN; SF-268; HT-29; Malme-3M; TK-10; U-251; OVCAR-8; SN12C; SF-539; OVCAR-3; SR; SK-MEL-5; OVCAR-5; UO-31; SNB-19; HCT-15.
Assay in all cases: NCI tumour cell line growth inhibition, 48 h

With `N/C(=N\O)N/N=C/c1ccc(C(F)(F)F)cc1`, the GI50 in the experiment on COLO 205 is 17.9 µM (inactive); in the experiment with IGROV-1, 7.41 µM (inactive); in the experiment with ACHN it was 4.61 µM (inactive); in the experiment on SF-268, 6.61 µM (inactive); with HT-29, 17.9 µM (inactive); with Malme-3M it was 16.7 µM (inactive). Also, the GI50 in the experiment on TK-10 is 23.9 µM (inactive); in the experiment on U-251, 16.8 µM (inactive); in the experiment on OVCAR-8 it was 13.4 µM (inactive); in the experiment with SN12C, 24.7 µM (inactive); with SF-539, 15.8 µM (inactive); in the experiment on OVCAR-3, 13.5 µM (inactive). In the experiment with SR, the GI50 was 6.85 µM (inactive).
With `CCOC(=O)C(=O)Nc1c(C)cccc1C(C)(C)C`, the GI50 in the experiment with COLO 205, in the experiment with IGROV-1, in the experiment on ACHN, with SK-MEL-5, with SF-268 and in the experiment on OVCAR-5 was > 100 µM (inactive) throughout. For the same compound, the GI50 in the experiment with HT-29, in the experiment with Malme-3M, in the experiment with TK-10, in the experiment on UO-31, with U-251 and with OVCAR-8 was > 100 µM (inactive) each time. The GI50 with SN12C was > 100 µM (inactive); with SF-539, > 100 µM (inactive); with SNB-19, > 100 µM (inactive); in the experiment on OVCAR-3, > 100 µM (inactive); in the experiment with HCT-15, above 100 µM.
Take `COC1OC(CO)C(O)C(O)C1Br` (stereo unspecified): the GI50 in the experiment with COLO 205, in the experiment on IGROV-1, in the experiment on ACHN, with SK-MEL-5, in the experiment with SF-268 and with OVCAR-5 was > 100 µM (inactive) in each case. Also, the GI50 with HT-29, with Malme-3M, in the experiment with TK-10, in the experiment on U-251, in the experiment with OVCAR-8 and with SN12C was > 100 µM (inactive) each time. The GI50 was > 100 µM (inactive) with SF-539; > 100 µM (inactive) in the experiment with SNB-19; > 100 µM (inactive) in the experiment with OVCAR-3; > 100 µM (inactive) in the experiment on SR; above 100 µM in the experiment on HCT-15.
In the case of `NC(=O)CCC(NC(=O)Cc1ccccc1)C(=O)O.NC(CCC(=O)NC(=O)Cc1ccccc1)C(=O)O` (stereo unspecified), the GI50 with COLO 205, in the experiment on IGROV-1, in the experiment with SK-MEL-5, with SF-268, in the experiment with OVCAR-5 and in the experiment with HT-29 was > 8130 µM (inactive) each time. In addition, the GI50 with Malme-3M, in the experiment on TK-10, with UO-31, with U-251, in the experiment on OVCAR-8 and with SN12C was > 8130 µM (inactive) throughout. In addition, the GI50 with SF-539, in the experiment on SNB-19, in the experiment with OVCAR-3 and in the experiment on SR was > 8130 µM (inactive) in each case.
For `COc1ccc2c3c(c(C(=O)c4ccccc4)oc13)CCC2`, the GI50 was > 100 µM (inactive) with COLO 205; > 100 µM (inactive) with IGROV-1; > 100 µM (inactive) in the experiment on ACHN; > 100 µM (inactive) with SK-MEL-5; 79.4 µM (inactive) in the experiment on HT-29; > 100 µM (inactive) in the experiment with TK-10. The GI50 in the experiment with U-251, with OVCAR-8, in the experiment on SN12C, in the experiment on SF-539, in the experiment with SNB-19 and in the experiment on OVCAR-3 was > 100 µM (inactive) each time. In addition, the GI50 in the experiment with HCT-15 was above 100 µM.
Consider `O=Cc1cn(S(=O)(=O)c2ccccc2)c2ccccc12`, for which the GI50 with IGROV-1 was > 100 µM (inactive); with ACHN, > 100 µM (inactive); in the experiment on SF-268, 25.5 µM (inactive); in the experiment on OVCAR-5 it was > 100 µM (inactive); in the experiment with HT-29, 55.5 µM (inactive); with Malme-3M, 34.5 µM (inactive). Besides, the GI50 in the experiment on TK-10 is > 100 µM (inactive); with UO-31, 18.7 µM (inactive); with U-251, 27.6 µM (inactive); with OVCAR-8 it was 33.5 µM (inactive); with SN12C, 42.4 µM (inactive); with SF-539 it was 27.5 µM (inactive). Besides, the GI50 with SNB-19 is 54.2 µM (inactive); with OVCAR-3, 41 µM (inactive); in the experiment on SR, 20.1 µM (inactive); in the experiment on HCT-15 it was 35.2 µM.
Consider `COc1ccc2c3c([nH]c2c1[N+](=O)[O-])C(C)N(Cc1ccccc1)CC3` (stereo unspecified), for which the GI50 is 3.17 µM (inactive) in the experiment on COLO 205; 3.57 µM (inactive) in the experiment with IGROV-1; 6.31 µM (inactive) in the experiment on ACHN; 2.02 µM (inactive) with SF-268; 43.3 µM (inactive) in the experiment on OVCAR-5; 2.92 µM (inactive) in the experiment with HT-29. Further, the GI50 was 9.25 µM (inactive) in the experiment with TK-10; 13.8 µM (inactive) in the experiment with UO-31; 2.67 µM (inactive) in the experiment on U-251; 3.72 µM (inactive) in the experiment with OVCAR-8; 5.81 µM (inactive) with SN12C; 1.79 µM (inactive) in the experiment with SF-539. For the same compound, the GI50 in the experiment on SNB-19 is 9.1 µM (inactive); in the experiment on OVCAR-3, 3.52 µM (inactive); in the experiment on SR, 4.49 µM (inactive); in the experiment on HCT-15, 3.61 µM.
As to `CCCCc1c2c(nc3c1CC/C(=C\c1ccc([N+](=O)[O-])cc1)C3=O)CCCC2`, the GI50 with COLO 205 was 2.81 µM (inactive); in the experiment on IGROV-1, 1.8 µM (inactive); in the experiment on ACHN it was 1.78 µM (inactive); in the experiment on SF-268, 1.98 µM (inactive); with HT-29 it was 1.33 µM (inactive); with Malme-3M it was 2 µM (inactive). The GI50 in the experiment with TK-10 is 1.66 µM (inactive); in the experiment with UO-31, 2.13 µM (inactive); with U-251 it was 1.59 µM (inactive); with OVCAR-8, 1.88 µM (inactive); with SN12C, 1.88 µM (inactive); in the experiment on SF-539, 1.79 µM (inactive). In addition, the GI50 in the experiment with SNB-19 is 1.87 µM (inactive); in the experiment with OVCAR-3, 1.76 µM (inactive); with SR, 2.86 µM (inactive); with HCT-15 it was 0.312 µM.
Regarding `CC(C)(C)c1cc(C#N)c2c(c1)C(=O)OC2(c1ccccc1)c1ccccc1C#N` (stereo unspecified), the GI50 in the experiment on COLO 205, in the experiment with IGROV-1, in the experiment with ACHN, with SF-268, with OVCAR-5 and in the experiment with HT-29 was > 100 µM (inactive) throughout. Also, the GI50 in the experiment with Malme-3M was > 100 µM (inactive); in the experiment with TK-10, > 100 µM (inactive); in the experiment with UO-31, 32.1 µM (inactive); in the experiment on U-251, > 100 µM (inactive); with OVCAR-8, > 100 µM (inactive); in the experiment with SN12C it was > 100 µM (inactive). Besides, the GI50 in the experiment with SF-539 was > 100 µM (inactive); in the experiment with SNB-19, > 100 µM (inactive); with OVCAR-3, 94.6 µM (inactive); in the experiment with SR it was 20.8 µM (inactive); in the experiment with HCT-15 it was 29.5 µM.
As to `Cc1ccc(C)c2c1CCc1cc3ccccc3nc1-2`, the GI50 in the experiment with COLO 205, in the experiment with IGROV-1, with ACHN, with SK-MEL-5, in the experiment on SF-268 and in the experiment with OVCAR-5 was > 100 µM (inactive) each time. In addition, the GI50 in the experiment with HT-29, in the experiment with Malme-3M, in the experiment on TK-10, with UO-31, with U-251 and in the experiment with OVCAR-8 was > 100 µM (inactive) each time. Besides, the GI50 was > 100 µM (inactive) in the experiment on SN12C; > 100 µM (inactive) with SF-539; > 100 µM (inactive) in the experiment with SNB-19; > 100 µM (inactive) in the experiment with OVCAR-3; above 100 µM in the experiment on HCT-15.
On to `COc1cc(C(=O)C/C(CCC(=O)Nc2ccc(Cl)cc2C)=N/NC(=O)C(N)=O)ccc1O`, for which the GI50 with COLO 205, with IGROV-1, in the experiment with ACHN, in the experiment with SK-MEL-5, with SF-268 and with OVCAR-5 was > 100 µM (inactive) each time. In addition, the GI50 in the experiment with HT-29 is > 100 µM (inactive); with Malme-3M, > 100 µM (inactive); in the experiment on TK-10, > 100 µM (inactive); in the experiment on UO-31, 43.1 µM (inactive); with U-251 it was > 100 µM (inactive); in the experiment on OVCAR-8, > 100 µM (inactive). Further, the GI50 in the experiment with SN12C is > 100 µM (inactive); in the experiment on SF-539 it was > 100 µM (inactive); with SNB-19, > 100 µM (inactive); with OVCAR-3, > 100 µM (inactive); in the experiment on HCT-15 it was above 100 µM.
Regarding `O=C1C2=C(c3ccccc31)C(c1ccc(F)cc1)N1C(=O)CCSC1=N2` (stereo unspecified), the GI50 was > 100 µM (inactive) with COLO 205; > 100 µM (inactive) in the experiment on IGROV-1; > 100 µM (inactive) in the experiment on ACHN; 60.5 µM (inactive) in the experiment on SK-MEL-5; > 100 µM (inactive) with SF-268; > 100 µM (inactive) with OVCAR-5. Besides, the GI50 is > 100 µM (inactive) in the experiment with HT-29; > 100 µM (inactive) in the experiment on Malme-3M; > 100 µM (inactive) with TK-10; 39.9 µM (inactive) in the experiment with UO-31; > 100 µM (inactive) in the experiment with U-251; > 100 µM (inactive) in the experiment on OVCAR-8. Besides, the GI50 in the experiment on SN12C was 42.9 µM (inactive); in the experiment with SF-539 it was > 100 µM (inactive); in the experiment on SNB-19 it was > 100 µM (inactive); in the experiment on OVCAR-3 it was > 100 µM (inactive); in the experiment with HCT-15, 98.4 µM.
For `CC[P+](C)(Cc1ccccc1)c1ccccc1.O=C(OC(C(=O)[O-])C(OC(=O)c1ccccc1)C(=O)O)c1ccccc1` (stereo unspecified), the GI50 in the experiment with COLO 205, in the experiment on IGROV-1, in the experiment with SF-268, with OVCAR-5, with HT-29 and in the experiment on Malme-3M was > 100 µM (inactive) throughout. Also, the GI50 in the experiment on TK-10, in the experiment with UO-31, with U-251, in the experiment on OVCAR-8, in the experiment on SN12C and in the experiment with SF-539 was > 100 µM (inactive) each time. Also, the figures for the GI50 with SNB-19 and with HCT-15 were > 100 µM (inactive) and above 100 µM, respectively.
